PubChem BioAssay AID1963830 (Molecular Pharmacology Branch, DTP, NCI, 2024)

Tested on: 922993-354-T-J3-PDC complex spheroid viability
Assay: Anticancer human tumor 922993-354-T-J3-PDC patient-derived endometrial carcinoma cell line growth inhibition [POLQ]
Details: for IC50: curve of first compound; for viability, T/C: stronger effect = lower value; active means viability on the fitted dose curve at most 10% of control; inactive means the rest
Method in brief: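 PDC + HUVEC + MSC complex spheroids; POLQ inhibitors ± partner drugs; top conc. at/near clinical Cmax, else 10 microM (SN-38 1 microM), half-log dilutions; 37 degrees C, 5% CO2.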
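Further: spheroids exposed to the agents for one week.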
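Wherever viability, T/C is given: 100% = DMSO vehicle control wells.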

CC(=O)O[C@H]1C(=O)[C@@]2(C)[C@H]([C@H](OC(=O)c3ccccc3)[C@]3(O)C[C@H](OC(=O)[C@H](O)[C@@H](NC(=O)c4ccccc4)c4ccccc4)C(C)=C1C3(C)C)[C@]1(OC(C)=O)CO[C@@H]1C[C@@H]2O + Cc1cccc(N(C)C(=O)C2C(O)CCN2c2nc(C)cc(C(F)(F)F)c2C#N)c1
> 3000 nM: IC50 (second compound 0.0316 µM) | IC50 (second compound 0.1 µM) | IC50 (second compound 0.316 µM) | IC50 (second compound 1 µM) | IC50 (second compound 3.16 µM) | IC50 (second compound 10 µM)
inactive: viability, T/C (second compound 0.0316 µM, first compound 0.00949 µM) 100% | viability, T/C (second compound 0.0316 µM, first compound 0.03 µM) 102% | viability, T/C (second compound 0.0316 µM, first compound 0.0949 µM) 101% | viability, T/C (second compound 0.0316 µM, first compound 0.3 µM) 103% | viability, T/C (second compound 0.0316 µM, first compound 0.949 µM) 98.5% | viability, T/C (second compound 0.0316 µM, first compound 3 µM) 76.6% | viability, T/C (second compound 0.1 µM, first compound 0.00949 µM) 105% | viability, T/C (second compound 0.1 µM, first compound 0.03 µM) 107% | viability, T/C (second compound 0.1 µM, first compound 0.0949 µM) 99.4% | viability, T/C (second compound 0.1 µM, first compound 0.3 µM) 99.8% | viability, T/C (second compound 0.1 µM, first compound 0.949 µM) 98.9% | viability, T/C (second compound 0.1 µM, first compound 3 µM) 66.9% | viability, T/C (second compound 0.316 µM, first compound 0.00949 µM) 104% | viability, T/C (second compound 0.316 µM, first compound 0.03 µM) 103% | viability, T/C (second compound 0.316 µM, first compound 0.0949 µM) 99.9% | viability, T/C (second compound 0.316 µM, first compound 0.3 µM) 103% | viability, T/C (second compound 0.316 µM, first compound 0.949 µM) 95.5% | viability, T/C (second compound 0.316 µM, first compound 3 µM) 73.3% | viability, T/C (second compound 1 µM, first compound 0.00949 µM) 104% | viability, T/C (second compound 1 µM, first compound 0.03 µM) 98.2% | viability, T/C (second compound 1 µM, first compound 0.0949 µM) 99% | viability, T/C (second compound 1 µM, first compound 0.3 µM) 101% | viability, T/C (second compound 1 µM, first compound 0.949 µM) 91.8% | viability, T/C (second compound 1 µM, first compound 3 µM) 64.8% | viability, T/C (second compound 3.16 µM, first compound 0.00949 µM) 99.8% | viability, T/C (second compound 3.16 µM, first compound 0.03 µM) 105% | viability, T/C (second compound 3.16 µM, first compound 0.0949 µM) 100% | viability, T/C (second compound 3.16 µM, first compound 0.3 µM) 95% | viability, T/C (second compound 3.16 µM, first compound 0.949 µM) 70.5% | viability, T/C (second compound 3.16 µM, first compound 3 µM) 63.5% | viability, T/C (second compound 10 µM, first compound 0.00949 µM) 97.3% | viability, T/C (second compound 10 µM, first compound 0.03 µM) 99.3% | viability, T/C (second compound 10 µM, first compound 0.0949 µM) 75.5% | viability, T/C (second compound 10 µM, first compound 0.3 µM) 66.7% | viability, T/C (second compound 10 µM, first compound 0.949 µM) 63.3% | viability, T/C (second compound 10 µM, first compound 3 µM) 48.7%

CC[C@@]1(O)C(=O)OCc2c1cc1n(c2=O)Cc2cc3c(CN(C)C)c(O)ccc3nc2-1 + Cc1cccc(N(C)C(=O)C2C(O)CCN2c2nc(C)cc(C(F)(F)F)c2C#N)c1
inactive: viability, T/C (second compound 0.0316 µM, first compound 0.000316 µM) 108% | viability, T/C (second compound 0.0316 µM, first compound 0.001 µM) 100% | viability, T/C (second compound 0.0316 µM, first compound 0.00316 µM) 104% | viability, T/C (second compound 0.0316 µM, first compound 0.01 µM) 98.6% | viability, T/C (second compound 0.0316 µM, first compound 0.0316 µM) 88.2% | viability, T/C (second compound 0.0316 µM, first compound 0.1 µM) 46.3% | viability, T/C (second compound 0.1 µM, first compound 0.000316 µM) 109% | viability, T/C (second compound 0.1 µM, first compound 0.001 µM) 101% | viability, T/C (second compound 0.1 µM, first compound 0.00316 µM) 103% | viability, T/C (second compound 0.1 µM, first compound 0.01 µM) 102% | viability, T/C (second compound 0.1 µM, first compound 0.0316 µM) 90% | viability, T/C (second compound 0.1 µM, first compound 0.1 µM) 65.5% | viability, T/C (second compound 0.316 µM, first compound 0.000316 µM) 110% | viability, T/C (second compound 0.316 µM, first compound 0.001 µM) 104% | viability, T/C (second compound 0.316 µM, first compound 0.00316 µM) 94.9% | viability, T/C (second compound 0.316 µM, first compound 0.01 µM) 102% | viability, T/C (second compound 0.316 µM, first compound 0.0316 µM) 87% | viability, T/C (second compound 0.316 µM, first compound 0.1 µM) 59.1% | viability, T/C (second compound 1 µM, first compound 0.000316 µM) 104% | viability, T/C (second compound 1 µM, first compound 0.001 µM) 99.5% | viability, T/C (second compound 1 µM, first compound 0.00316 µM) 104% | viability, T/C (second compound 1 µM, first compound 0.01 µM) 99.7% | viability, T/C (second compound 1 µM, first compound 0.0316 µM) 86% | viability, T/C (second compound 1 µM, first compound 0.1 µM) 57.3% | viability, T/C (second compound 3.16 µM, first compound 0.000316 µM) 108% | viability, T/C (second compound 3.16 µM, first compound 0.001 µM) 102% | viability, T/C (second compound 3.16 µM, first compound 0.00316 µM) 94.1% | viability, T/C (second compound 3.16 µM, first compound 0.01 µM) 93% | viability, T/C (second compound 3.16 µM, first compound 0.0316 µM) 77.1% | viability, T/C (second compound 3.16 µM, first compound 0.1 µM) 49.9% | viability, T/C (second compound 10 µM, first compound 0.000316 µM) 101% | viability, T/C (second compound 10 µM, first compound 0.001 µM) 99.2% | viability, T/C (second compound 10 µM, first compound 0.00316 µM) 99.2% | viability, T/C (second compound 10 µM, first compound 0.01 µM) 79.1% | viability, T/C (second compound 10 µM, first compound 0.0316 µM) 68.3% | viability, T/C (second compound 10 µM, first compound 0.1 µM) 23.7%
48.5 nM: IC50 (second compound 10 µM)
> 100 nM: IC50 (second compound 0.1 µM) | IC50 (second compound 0.316 µM) | IC50 (second compound 1 µM) | IC50 (second compound 3.16 µM)
90.6 nM: IC50 (second compound 0.0316 µM)
